The nature of data set [1]: In vitro intrinsic clearance in human hepatocytes. The data set is classed as in vitro ADME. The settings on record: both sexes, pooled hepatocytes in suspension, human (mixed gender) hepatocytes pooled from 10 donors, 0.545 million cells/mL, up to 60 minutes at 37° C., weighted on ratio of D0, D1 and D2. The protocol:
(§1) Human (mixed gender) hepatocytes pooled from 10 donors (0.545 million cells/mL) were used to investigate the in vitro intrinsic clearance of DMT and 6 deuterated analogues.
(§2) A concentration of 5 μM was used for all test compounds, as well as sumatriptan, serotonin, benzylamine controls. This concentration was chosen in order to maximise the signal-to-noise ratio, while remaining under the Michaelis constant (Km) for the monoamine oxidase enzyme (MAO). Diltiazem and diclofenac controls were used at a laboratory-validated concentration of 1 μM.
(§3) Test compounds were mixed with the hepatocyte suspension within a 96-well plate and incubated for up to 60 minutes at 37° C. […] At 7 time points, small aliquots were withdrawn, and the test compound/blend concentration therein was measured by LC-MS/MS. The time points measured were 2, 4, 8, 15, 30, 45 and 60 minutes. […]
(§4) The MRM transitions were determined from a preliminary analysis of DMT samples containing either no deuterium (for D0 transition), or high levels of either D1 or D2 deuteration (for the D1 and D2 transitions respectively).
(§5) The resulting concentration-time profile was then used to calculate intrinsic clearance (CLint) and half-life (t½). […] Intrinsic clearance is calculated from the slope/elimination rate constant and the formula is CLint=(−1000*slope)/cell density in 1E6 cells/ml, to give units of microlitre/min/million cells. […]

For data set [2], the system named is human hepatocytes. The data set is described as follows: In vitro intrinsic clearance in human hepatocytes. The data set is classed as in vitro ADME. The settings on record: human (mixed gender) hepatocytes pooled from 10 donors, 0.545 million cells/mL; 5 μM; up to 60 minutes at 37° C.; calculated, weighted on ratio of D0, D1 and D2. The protocol: as §1, §2, §3, §4, §5

For the compound `CN(C)CCc1c[nH]c2ccccc12` [DMT, N,N-dimethyltryptamine], in data set [1], the hepatocyte CLint at 5 μM is 13.8 µL/min/1e6 cells. For the same compound, the Half-life in data set [2] is listed as 92.39 min.

A word on the hepatocyte CLint: it is the capacity of the preparation to metabolise the compound, expressed as a volume cleared per time.

(Values after patent US11771681B2, “Therapeutic compounds” (SMALL PHARMA LTD, priority 2019, dated 2023).)
